From patent US10722520B2, “Heterocyclic compounds and their use in preventing or treating bacterial infections” (MUTABILIS, priority 2016, dated 2020)

How the values were obtained:
[1] = biological target: CMY-37 (Citrobacter freundii, UniProt P05193); settings: read-out: IC50 β-lactamase CMY-37; class (C); nitrocefin 200 μM, 30-min pre-incubation, enzyme 0.2 nM
[2] = biological target: OXA-11 (Pseudomonas aeruginosa, UniProt Q06778); settings: read-out: IC50 β-lactamase OXA-11; class (D); nitrocefin 200 μM, 30-min pre-incubation, enzyme 1.2 nM
[3] = biological target: OXA-48 (Klebsiella pneumoniae, UniProt Q6XEC0); settings: read-out: IC50 β-lactamase OXA-48; class (D); nitrocefin 200 μM, 30-min pre-incubation, enzyme 0.3 nM
[4] = biological target: KPC-2 (Klebsiella pneumoniae, UniProt Q9F663); settings: read-out: IC50 β-lactamase KPC-2; class (A); nitrocefin 200 μM, 30-min pre-incubation, enzyme 1 nM
[5] = biological target: OXA-1 (Escherichia coli, UniProt P13661); settings: read-out: IC50 β-lactamase OXA-1; class (D); nitrocefin 200 μM, 30-min pre-incubation, enzyme 0.2 nM
[6] = biological target: OXA-15 (Pseudomonas aeruginosa, UniProt Q51574); settings: read-out: IC50 β-lactamase OXA-15; class (D); nitrocefin 200 μM, 30-min pre-incubation, enzyme 0.4 nM
[7] = biological target: AmpC (P99) (Enterobacter cloacae, UniProt P05364); settings: read-out: IC50 β-lactamase AmpC (P99); class (C); nitrocefin 200 μM, 30-min pre-incubation, enzyme 0.2 nM
[8] = system: K. pneumoniae 6299; test: MIC of compound alone, broth microdilution; assay type: cell-based; settings: strain 6299; compound alone
Summary of the method: (§1)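 Log-phase bacteria were diluted to a final 5×10^5 cfu/mL in cation-adjusted Mueller-Hinton broth and incubated 16-20 h at 35° C in ambient air. MIC was taken as the lowest concentration preventing growth, judged visually.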

[9] = system: E. cloacae P99; test: MIC of compound alone, broth microdilution; assay type: cell-based; settings: strain P99; compound alone
Summary of the method: as §1

[10] = system: K. pneumoniae BAA-1898; test: MIC of compound alone, broth microdilution; assay type: cell-based; settings: strain BAA-1898; compound alone
Summary of the method: as §1

[11] = system: P. aeruginosa CIP107051; test: MIC of compound alone, broth microdilution; assay type: cell-based; settings: strain CIP107051; compound alone
Summary of the method: as §1

[12] = system: E. coli 190317; test: MIC of compound alone, broth microdilution; assay type: cell-based; settings: strain 190317; compound alone
Summary of the method: as §1

[13] = system: K. pneumoniae 6299; test: MIC of ceftazidime (CAZ) at fixed concentration of compound (synergy), broth microdilution; assay type: cell-based; settings: strain 6299; MIC of CAZ, compound fixed at 4 μg/mL
Summary of the method: as §1

[14] = system: E. cloacae P99; test: as above; assay type: cell-based; settings: strain P99; MIC of CAZ, compound fixed at 4 μg/mL
Summary of the method: as §1

[15] = system: K. pneumoniae BAA-1898; test: as above; assay type: cell-based; settings: strain BAA-1898; MIC of CAZ, compound fixed at 4 μg/mL
Summary of the method: as §1

[16] = system: P. aeruginosa CIP107051; test: as above; assay type: cell-based; settings: strain CIP107051; MIC of CAZ, compound fixed at 4 μg/mL
Summary of the method: as §1

[17] = system: E. coli 190317; test: as above; assay type: cell-based; settings: strain 190317; MIC of CAZ, compound fixed at 4 μg/mL
Summary of the method: as §1

[18] = biological target: SHV-1 (Klebsiella pneumoniae, UniProt P0AD64); settings: read-out: IC50 β-lactamase SHV-1; class (A); nitrocefin 200 μM, 30-min pre-incubation, enzyme 0.075 nM
[19] = biological target: AmpC (PAE) (Pseudomonas aeruginosa, UniProt P24735); settings: read-out: IC50 β-lactamase AmpC (PAE); class (C); nitrocefin 200 μM, 30-min pre-incubation, enzyme 0.4 nM
[20] = biological target: CTX-M-15 (Escherichia coli, UniProt Q9EXV5); settings: read-out: IC50 β-lactamase CTX-M-15; class (A); nitrocefin 200 μM, 30-min pre-incubation, enzyme 0.4 nM
[21] = biological target: TEM-1 (Escherichia coli, UniProt P62593); settings: read-out: IC50 β-lactamase TEM-1; class (A); nitrocefin 200 μM, 30-min pre-incubation, enzyme 0.1 nM

| SMILES | IC50 [1] | IC50 [2] | IC50 [3] | IC50 [4] | IC50 [5] | IC50 [6] | IC50 [7] | MIC compounds of the invention alone [8] | MIC compounds of the invention alone [9] | MIC compounds of the invention alone [10] | MIC compounds of the invention alone [11] | MIC compounds of the invention alone [12] | MIC combination of CAZ and compounds of the invention at 4 μg/mL [13] | MIC combination of CAZ and compounds of the invention at 4 μg/mL [14] | MIC combination of CAZ and compounds of the invention at 4 μg/mL [15] | MIC combination of CAZ and compounds of the invention at 4 μg/mL [16] | MIC combination of CAZ and compounds of the invention at 4 μg/mL [17] | IC50 [18] | IC50 [19] | IC50 [20] | further results |
| --- | --- | --- | --- | --- | --- | --- | --- | --- | --- | --- | --- | --- | --- | --- | --- | --- | --- | --- | --- | --- | --- |
| NCc1ccn(C2=CC3CN(C2)C(=O)N3OS(=O)(=O)[O-])n1.O=C(O)C(F)(F)F.[Na+] (stereo not drawn) [Example 49, sodium and 2,2,2-trifluoroacetate [3-[3-(ammoniummethyl)pyrazol-1-yl]-7-oxo-1,6-diazabicyclo[3.2.1]oct-3-en-6-yl]sulfate] | 150 nM | 380 nM | 46 nM | 180 nM | 670 nM | 510 nM | 160 nM | >32 µg/mL | 16 µg/mL | >32 µg/mL | >32 µg/mL | 2 µg/mL | ≤0.25 µg/mL | ≤0.25 µg/mL | ≤0.25 µg/mL | 4 µg/mL | <0.25 µg/mL | 8.5 nM | 1300 nM | 2.6 nM | IC50 [21]: 1.2 nM |
| O=C1N2CC(n3cc(-c4nccs4)nn3)=CC(C2)N1OS(=O)(=O)[O-].[Na+] (stereo not drawn) [Example 55, sodium [7-oxo-3-(4-thiazol-2-yltriazol-1-yl)-1,6-diazabicyclo[3.2.1]oct-3-en-6-yl]sulfate] | 35 nM | 25 nM | 0.27 nM | 0.82 nM | 26 nM | 3.4 nM | 6.3 nM | >32 µg/mL | >32 µg/mL | >32 µg/mL | >32 µg/mL | >32 µg/mL | 4 µg/mL | 8 µg/mL | 1 µg/mL | 8 µg/mL | 0.25 µg/mL | 0.61 nM | 230 nM | 0.41 nM | IC50 [21]: 0.14 nM |
| NC(=O)c1cn(C2=CC3CN(C2)C(=O)N3OS(=O)(=O)[O-])nn1.[Na+] (stereo not drawn) [Example 56, sodium [3-(4-carbamoyltriazol-1-yl)-7-oxo-1,6-diazabicyclo[3.2.1]oct-3-en-6-yl]sulfate] | 38 nM | 37 nM | 0.48 nM | 2.4 nM | 30 nM | 9 nM | 12 nM | 32 µg/mL | 8 µg/mL | 32 µg/mL | >32 µg/mL | 4 µg/mL | ≤0.25 µg/mL | ≤0.25 µg/mL | ≤0.25 µg/mL | 8 µg/mL | <0.25 µg/mL | 1 nM | 290 nM | 0.44 nM | IC50 [21]: 0.17 nM |
| NCc1cn(C2=CC3CN(C2)C(=O)N3OS(=O)(=O)[O-])nn1.O=C(O)C(F)(F)F.[Na+] (stereo not drawn) [Example 57, sodium and 2,2,2-trifluoroacetate [3-[4-(ammoniummethyl)triazol-1-yl]-7-oxo-1,6-diazabicyclo[3.2.1]oct-3-en-6-yl]sulfate] | 31 nM | 170 nM | 1.1 nM | 11 nM | 66 nM | 6.4 nM | 21 nM | >32 µg/mL | 1 µg/mL | 16 µg/mL | 16 µg/mL | 0.5 µg/mL | ≤0.25 µg/mL | <0.25 µg/mL | ≤0.25 µg/mL | 4 µg/mL | <0.25 µg/mL | 2.6 nM | 550 nM | 0.75 nM | IC50 [21]: 0.37 nM |
| CN(C)Cc1cn(C2=CC3CN(C2)C(=O)N3OS(=O)(=O)[O-])nn1.[Na+] (stereo not drawn) [Example 59, sodium [3-[4-(dimethylamino)methyltriazol-1-yl]-7-oxo-1,6-diazabicyclo[3.2.1]oct-3-en-6-yl]sulfate] | 72 nM | 170 nM | 1.2 nM | 12 nM | 210 nM | 6.6 nM | 34 nM | >32 µg/mL | 2 µg/mL | >32 µg/mL | >32 µg/mL | 1 µg/mL | ≤0.25 µg/mL | <0.25 µg/mL | ≤0.25 µg/mL | 8 µg/mL | <0.25 µg/mL | 2.5 nM | 590 nM | 0.55 nM | IC50 [21]: 0.69 nM |
| O=C([O-])Cc1cn(C2=CC3CN(C2)C(=O)N3OS(=O)(=O)[O-])nn1.[Na+].[Na+] (stereo not drawn) [Example 61] | 41 nM | 360 nM | 0.91 nM | 17 nM | 110 nM | 19 nM | 20 nM | 32 µg/mL | 32 µg/mL | >32 µg/mL | >32 µg/mL | 32 µg/mL | 4 µg/mL | 8 µg/mL | 64 µg/mL | 4 µg/mL | 0.5 µg/mL | 6.1 nM | 1100 nM | 1.8 nM | IC50 [21]: 1.7 nM |
